Data set [1] concerns Human immunodeficiency virus 1. The experiment in a line: Compound was evaluated for anti-Tat activity in the HeLa-TAT-Luc cell assay against human immunodeficiency virus at 25 uM concentration (Untreated cells). The format is functional.
For data set [2], the system named is Human immunodeficiency virus 1. The data set is described as follows: Compound was evaluated for the inhibition of HIV-1 LTR by HeLa-Tet-ON assay at 50 uM concentration. The format is functional.
Data set [3] can be described thus: Compound was evaluated for toxicity in necrosis using MT2 assay at 50 uM concentration at 24 hr. Conditions: human.
Data set [4] is described as follows: Compound was evaluated for toxicity in necrosis using MT2 assay at 25 uM concentration at 24 hr. Conditions: human.
The subject of data set [5] is Human immunodeficiency virus 1. The experiment in a line: Compound was evaluated for the inhibition of HIV-1 LTR by TNF-alpha-induced NF-kB assay at 50 uM concentration (TNF-alpha-treated cells). The format is functional.
Data set [6] relates to Human immunodeficiency virus 1. The data set is described as follows: Compound was evaluated for anti-Tat activity in the HeLa-TAT-Luc cell assay against human immunodeficiency virus at 100 uM concentration (Untreated cells). The class given is functional.
In data set [7] the test system is Human immunodeficiency virus 1. The experiment in a line: Compound was evaluated for the inhibition of HIV-1 LTR by TNF-alpha-induced NF-kB assay at 100 uM concentration (TNF-alpha-treated cells). The class given is functional.
Data set [8] relates to Human immunodeficiency virus 1. The experiment in a line: Compound was evaluated for the inhibition of HIV-1 LTR by TNF-alpha-induced NF-kB assay at 25 uM concentration (TNF-alpha-treated cells). The format is functional.
In data set [9] the test system is Human immunodeficiency virus 1. The data set is described as follows: Compound was evaluated for anti-Tat activity in the HeLa-TAT-Luc cell assay against human immunodeficiency virus at 50 uM concentration (Untreated cells). The format is functional.
Data set [10] relates to Human immunodeficiency virus 1. The data set is described as follows: Compound was evaluated for the inhibition of HIV-1 LTR by HeLa-Tet-ON assay at 25 uM concentration. The class given is functional.
Data set [11] deals with Human immunodeficiency virus 1. The experiment in a line: Compound was evaluated for activity in Recombinant virus assay at concentration that reduces luciferase activity, thus recombinant virus replication. The format is functional, organism-based.
Data set [12] can be described thus: Compound was evaluated for IP toxicity at concentration that reduces cellular growth. Conditions: human.
The test system of data set [13] is Human immunodeficiency virus 1. The experiment in a line: Compound was evaluated for anti-Tat activity in the HeLa-TAT-Luc cell assay against human immunodeficiency virus at 100 uM concentration (Untreated cells);toxic at this dose. The format is functional, organism-based.
Data set [14] concerns Human immunodeficiency virus 1. The data set is described as follows: Compound was evaluated for the inhibition of HIV-1 LTR by TNF-alpha-induced NF-kB assay at 100 uM concentration (TNF-alpha-treated cells);toxic at this dose. The class given is functional, organism-based.
Data set [15] deals with Human immunodeficiency virus 1. The experiment in a line: Compound was evaluated for anti-Tat activity in the HeLa-TAT-Luc cell assay against human immunodeficiency virus at 50 uM concentration (Untreated cells);toxic at this dose. The class given is functional, organism-based.

Where only a bound is given, the exact number is not on record here.

For the compound `COc1cc([C@@H]2c3c(ccc4ccccc34)C(=O)[C@H]3COC(=O)[C@@H]23)cc(OC)c1OC`, the values for the inhibition at 25 µM in data set [1], in data set [8] and in [10] were -0.6%, 32.9% and less than 15%, respectively. The inhibition at 50 µM is greater than 15% in data set [2], 25.8% in data set [5] and 60% in data set [9]. The Cell death was 4.5% in data set [3] and 5.5% in [4]. The results for the inhibition at 100 µM in [6] and in [7] were 43% and 95.5%, respectively.

Consider `COc1cc([C@@H]2c3cccc4cccc(c34)C3(SCCCS3)[C@@H]3COC(=O)[C@@H]23)cc(OC)c1OC`, for which the results for the inhibition at 25 µM in [1] and in data set [8] were -35.9% and 21.8%, respectively. Also, the Cell death stood at 10.5% in data set [3] and 10.3% in [4]. In addition, the values for the inhibition at 50 µM in [5] and in data set [9] were 38% and -39.7%, respectively. The inhibition at 100 µM was -40.9% in [6] and 23.6% in data set [7].

As for `COc1cc2c(c(OC)c1OC)[C@]13C(=O)OC[C@H]1[C@@H](C)c1cccc4cccc(c14)[C@@H]23`, the inhibition at 25 µM is -53.1% in data set [1], 73.6% in data set [8] and less than 15% in data set [10]. Moreover, the inhibition at 50 µM in [2] is less than 15%; in data set [5], 56.1%; in [9], -52.9%. Further, the figures for the Cell death in [3] and in [4] were 11.3% and 7.8%, respectively. In data set [11], the IC50 is 2.29 µM. In [6], the inhibition at 100 µM was -53.1%. The same compound yielded a CC50 in data set [12] greater than 50 µM.

In the case of `COc1cc(C2C(=O)OCC2C(=O)c2cccc3ccccc23)cc(OC)c1OC` (configuration not stated), the inhibition entry in data set [13], in data set [14] and in data set [15] was “Toxic” in each case. The inhibition at 25 µM was 11.6% in data set [1], 1.5% in data set [8] and greater than 15% in data set [10]. Besides, the inhibition at 50 µM in data set [2] was greater than 15%; in data set [5] it was 24.9%. The Cell death in data set [3] amounted to 7.6%; in data set [4], 6.2%.

Regarding `C=C1C(=O)c2ccc3ccccc3c2[C@@H](c2cc(OC)c(OC)c(OC)c2)[C@@H]1C(=O)OC`, the inhibition result in data set [13], in data set [14] and in data set [15] was “Toxic” each time. The inhibition at 25 µM in [1] was 56.2%; in [8], 96.7%; in data set [10], less than 15%. Besides, the figures for the inhibition at 50 µM in data set [2] and in data set [5] were greater than 15% and 98.9%, respectively. Besides, the results for the Cell death in [3] and in data set [4] were 98% and 95%, respectively.

With `O=C1CC(C2(c3cccc4ccccc34)SCCCS2)CO1` (configuration not stated), the inhibition at 25 µM was 6% in data set [1], 3% in data set [8] and less than 15% in data set [10]. For the same compound, the inhibition at 50 µM in data set [2] was greater than 15%; in data set [5], 24.2%; in data set [9], 9.7%. In addition, the Cell death worked out at 3.5% in [3] and 2.9% in [4]. Also, the inhibition at 100 µM was 25.6% in [6] and 81% in data set [7].

As for `COc1cc([C@H]2c3c(ccc4ccccc34)C3(SCCCS3)[C@H]3COC(=O)[C@H]23)cc(OC)c1OC`, the inhibition at 25 µM in data set [1] was -9.1%; in [8], 17.6%. In addition, the inhibition at 50 µM in data set [5] was 10.8%; in data set [9], -9.4%. Further, the inhibition at 100 µM in data set [6] was -19%; in data set [7], -11.7%.

Consider `COc1cc(C(O)[C@@H]2C(=O)OCC2C(=O)c2cccc3ccccc23)cc(OC)c1OC` (some centres not stated), for which the inhibition at 25 µM was 1.6% in data set [1], 37.5% in data set [8] and greater than 15% in data set [10]. The figures for the inhibition at 50 µM in data set [2], in [5] and in data set [9] were greater than 15%, 64.2% and 18%, respectively. For the same compound, the Cell death in data set [3] is on record as 45.7%; in data set [4], 32.1%. Further, in data set [14], the inhibition result is “Toxic”. Moreover, the inhibition at 100 µM in data set [6] amounted to 65%.

Turning to `COc1cc([C@@H]2c3cccc4cccc(c34)C3(SCCCS3)[C@H](CO)[C@@H]2CO)cc(OC)c1OC`, the inhibition at 25 µM is 11.7% in [1] and 43.5% in data set [8]. For the same compound, the Cell death in data set [3] was 6.7%; in [4], 7.9%. Moreover, the inhibition at 50 µM in data set [5] is 35.2%; in data set [9], 17.6%. The inhibition at 100 µM in [6] came out at 16.4%; in data set [7], 25.2%.

In the case of `CCn1c2ccccc2c2cc(C3(C4COC(=O)[C@@H]4C(O)c4cc(OC)c(OC)c(OC)c4)SCCCS3)ccc21` (some centres not stated), the inhibition at 25 µM in data set [1] was 11.9%; in [8], 38.5%; in data set [10] it was less than 15%. The inhibition at 50 µM in data set [2] was less than 15%; in [5] it was 39.7%; in data set [9] it was 20.3%. Besides, the Cell death is 4% in data set [3] and 4.6% in [4]. The IC50 in data set [11] came out at 26.8 µM. Further, the inhibition at 100 µM in data set [6] came out at 30.7%; in data set [7], 43.7%. For the same compound, in data set [12], the CC50 was greater than 50 µM.

Regarding `CCn1c2ccccc2c2cc(C3(C4COC(=O)C4)SCCCS3)ccc21` (configuration not stated), the inhibition at 25 µM in data set [1] was 43.4%; in data set [8], -7.1%; in data set [10], less than 15%. Besides, the inhibition at 50 µM in [2] is less than 15%; in [5], 30%; in data set [9], 41.5%. Besides, the Cell death was 4.2% in data set [3] and 4.9% in [4]. In data set [11], the IC50 was 4.52 µM. Further, the inhibition at 100 µM in [6] was found to be 40.1%; in data set [7], 17.6%. The compound further had a CC50 in [12] greater than 50 µM.

`COC(=O)[C@H]1[C@H](c2cc(OC)c(OC)c(OC)c2)c2c(ccc3ccccc23)C(=O)[C@]12CCN=N2`: the inhibition at 25 µM in data set [1] was 38.8%; in [8], 32.9%; in data set [10], greater than 15%. Moreover, the inhibition at 50 µM was greater than 15% in data set [2], 87.1% in data set [5] and 42.2% in data set [9]. Besides, the Cell death in [3] turned out to be 43.1; in data set [4] it was 30. Besides, the figures for the inhibition at 100 µM in data set [6] and in data set [7] were 46% and 92%, respectively.

For the compound `COc1cc(C(O)[C@H]2C(=O)OCC2C2(c3ccc4ccccc4c3)SCCCS2)cc(OC)c1OC` (some centres not stated), the values for the inhibition at 25 µM in [1], in data set [8] and in data set [10] were 36.6%, 77% and greater than 15%, respectively. Also, the inhibition at 50 µM in data set [2] is greater than 15%; in data set [5], 57.2%; in data set [9] it was 38.8%. Besides, the Cell death was 14.6% in data set [3] and 11.4% in data set [4]. Besides, the results for the inhibition at 100 µM in data set [6] and in [7] were 30.9% and 65.9%, respectively.

Values taken from ChEMBL document CHEMBL1137184, “Anti-HIV activity of some synthetic lignanolides and intermediates” (Bioorg Med Chem Lett, 2004).
